Reference: article PMC6927578 (Archiv der Pharmazie, 2016)
Like-named read-outs stand apart in the source and are kept apart here.

How the values were obtained:
HDAC1 = HDAC1 (Homo sapiens, UniProt Q13547); test: Fluor de Lys HDAC isoform assay, HDAC1; conditions: for isoform selectivity among HDAC1, 3 and 6: 125 μM single concentration screen (Fig. 2)
[1] = system: HDAC activity from HeLa cell lysates; test: Fluor de Lys in vitro fluorescence HDAC activity assay with HeLa cell lysates; assay type: biochemical, human; conditions: for fold reduced potency compared to SAHA: HeLa cell lysates IC50 ratio; for IC50 / % activity remaining: HeLa cell lysates; for IC50: mean of three trials with standard error; for % activity remaining: 250 μM compound
HDAC6 = biological target: T1, HDAC6 (Homo sapiens, UniProt Q9UBN7); test: Fluor de Lys HDAC isoform assay, HDAC6
T1 sequence (Q9UBN7 1-1215): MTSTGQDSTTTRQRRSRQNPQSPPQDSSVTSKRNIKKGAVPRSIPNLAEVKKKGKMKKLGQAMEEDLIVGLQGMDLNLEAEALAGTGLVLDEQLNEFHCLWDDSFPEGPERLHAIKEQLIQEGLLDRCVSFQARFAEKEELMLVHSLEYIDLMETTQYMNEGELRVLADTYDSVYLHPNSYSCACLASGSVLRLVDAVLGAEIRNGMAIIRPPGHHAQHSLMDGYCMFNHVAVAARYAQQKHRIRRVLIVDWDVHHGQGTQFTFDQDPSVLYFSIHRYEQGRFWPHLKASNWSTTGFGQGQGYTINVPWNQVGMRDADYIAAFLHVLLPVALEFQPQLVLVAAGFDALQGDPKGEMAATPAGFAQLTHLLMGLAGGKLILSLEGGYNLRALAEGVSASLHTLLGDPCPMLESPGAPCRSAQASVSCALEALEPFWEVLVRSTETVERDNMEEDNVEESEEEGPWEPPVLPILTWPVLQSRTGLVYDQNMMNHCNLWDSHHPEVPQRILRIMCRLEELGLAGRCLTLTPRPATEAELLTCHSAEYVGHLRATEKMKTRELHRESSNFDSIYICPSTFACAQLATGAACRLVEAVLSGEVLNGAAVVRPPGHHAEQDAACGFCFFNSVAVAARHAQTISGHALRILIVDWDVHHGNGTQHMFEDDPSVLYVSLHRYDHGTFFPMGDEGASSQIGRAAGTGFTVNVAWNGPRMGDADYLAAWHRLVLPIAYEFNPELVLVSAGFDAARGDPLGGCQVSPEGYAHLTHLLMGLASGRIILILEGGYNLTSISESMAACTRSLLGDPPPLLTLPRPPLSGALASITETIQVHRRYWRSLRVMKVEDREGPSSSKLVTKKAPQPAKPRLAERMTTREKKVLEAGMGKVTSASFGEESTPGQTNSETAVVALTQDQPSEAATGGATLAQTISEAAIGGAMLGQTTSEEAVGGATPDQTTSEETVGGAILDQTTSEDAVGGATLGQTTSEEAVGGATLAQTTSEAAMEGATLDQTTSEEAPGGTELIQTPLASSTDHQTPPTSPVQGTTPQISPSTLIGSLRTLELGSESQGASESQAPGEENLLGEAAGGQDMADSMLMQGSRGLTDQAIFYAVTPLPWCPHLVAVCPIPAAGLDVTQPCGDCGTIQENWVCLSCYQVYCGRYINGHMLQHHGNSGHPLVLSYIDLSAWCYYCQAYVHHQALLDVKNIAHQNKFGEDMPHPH

HDAC3 = HDAC3 (Homo sapiens, UniProt O15379); test: Fluor de Lys HDAC isoform assay, HDAC3
[2] = Solubility observed in the HDAC assay; assay type: physicochemical; conditions: assay conditions; prevented testing above 250 μM
[3] = 125 μM single concentration screen

Chain of HDAC1 (Q13547 whole entry, canonical isoform): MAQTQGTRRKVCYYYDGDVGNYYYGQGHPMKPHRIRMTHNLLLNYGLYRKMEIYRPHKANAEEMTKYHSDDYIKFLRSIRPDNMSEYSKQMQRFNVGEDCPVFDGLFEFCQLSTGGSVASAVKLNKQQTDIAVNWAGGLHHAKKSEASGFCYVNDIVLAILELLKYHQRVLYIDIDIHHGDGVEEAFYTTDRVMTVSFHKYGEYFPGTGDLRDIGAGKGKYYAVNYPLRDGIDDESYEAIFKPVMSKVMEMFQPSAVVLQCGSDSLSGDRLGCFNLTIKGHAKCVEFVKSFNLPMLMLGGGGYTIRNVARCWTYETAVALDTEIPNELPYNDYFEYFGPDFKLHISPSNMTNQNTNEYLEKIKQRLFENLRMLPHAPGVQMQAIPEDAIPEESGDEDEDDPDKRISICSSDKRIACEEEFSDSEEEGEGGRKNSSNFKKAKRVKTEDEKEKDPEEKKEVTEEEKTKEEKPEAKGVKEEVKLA
Chain of HDAC3 (O15379 whole entry, canonical isoform): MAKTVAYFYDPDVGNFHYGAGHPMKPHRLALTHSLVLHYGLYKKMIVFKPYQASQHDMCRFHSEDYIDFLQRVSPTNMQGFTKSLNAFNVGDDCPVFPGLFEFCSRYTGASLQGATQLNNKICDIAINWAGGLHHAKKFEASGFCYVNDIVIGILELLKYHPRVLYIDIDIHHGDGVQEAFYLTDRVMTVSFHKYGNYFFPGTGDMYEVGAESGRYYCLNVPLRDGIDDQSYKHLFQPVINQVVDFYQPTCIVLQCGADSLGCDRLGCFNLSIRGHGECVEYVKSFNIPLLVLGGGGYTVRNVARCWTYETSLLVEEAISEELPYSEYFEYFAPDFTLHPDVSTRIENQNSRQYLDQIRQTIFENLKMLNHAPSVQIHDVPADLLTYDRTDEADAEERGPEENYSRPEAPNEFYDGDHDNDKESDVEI
Chain of HDAC3 (Q9Y618 395-489 partner limits assumed): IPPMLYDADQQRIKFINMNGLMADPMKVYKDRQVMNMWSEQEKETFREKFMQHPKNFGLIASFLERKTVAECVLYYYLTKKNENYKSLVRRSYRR

Compound	isoform selectivity among HDAC1, 3 and 6 (HDAC1)	IC50 [1] [µM]	IC50 (HDAC1) [µM]	preference for HDAC1 versus HDAC3 (HDAC1; ratio of IC50 values) [fold]	IC50 (HDAC6) [µM]	IC50 (HDAC3) [µM]	fold reduced potency compared to SAHA [1] [fold]	% activity remaining [1]	solubility [2]	activity remaining, HDAC1 (HDAC1; [3]) [%]	IC50 (HDAC1; read-out: IC50 HDAC1, mean of at least three trials with standard error) [µM]	inhibition of HDAC6 (HDAC6; [3])	inhibition of HDAC3 (HDAC3; [3])
CN(O)C(=O)CCCCCCC(=O)Nc1ccccc1 [Compound 2a, N^1-hydroxy-N^1-methyl-N^8-phenyloctanediamide]	little to no isoform selectivity	794 ± 41					> 8800						
O=C(CCCCCCC(=O)N(O)CCc1ccccc1)Nc1ccccc1 [Compound 2d, N^1-hydroxy-N^1-phenethyl-N^8-phenyloctanediamide]	roughly similar potency against the isoforms	> 500						80 ± 2% activity at 250 μM^b)	low solubility at high concentrations				
O=C(CCCCCCC(=O)N(O)Cc1ccc(-c2ccccc2)cc1)Nc1ccccc1 [Compound 2e, N^1-(biphenyl-4-methyl)-N^1-hydroxy-N^8-phenyloctanediamide]	preferential HDAC1 inhibition	> 500						101 ± 1% activity with 250 μM^b)	low solubility at high concentrations	58±2	233 ± 40	statistically insignificant inhibition	statistically insignificant inhibition

Stronger by IC50 [1], values ahead:

isoform selectivity among HDAC1, 3 and 6 (HDAC1)	IC50 [1] [µM]	IC50 (HDAC1) [µM]	preference for HDAC1 versus HDAC3 (HDAC1; ratio of IC50 values) [fold]	IC50 (HDAC6) [µM]	IC50 (HDAC3) [µM]	Compound	fold reduced potency compared to SAHA [1] [fold]	% activity remaining [1]	solubility [2]	activity remaining, HDAC1 (HDAC1; [3]) [%]	IC50 (HDAC1; read-out: IC50 HDAC1, mean of at least three trials with standard error) [µM]	inhibition of HDAC6 (HDAC6; [3])	inhibition of HDAC3 (HDAC3; [3])
little to no isoform selectivity	153 ± 14					CCCCCN(O)C(=O)CCCCCCC(=O)Nc1ccccc1 [Compound 2b, N^1-pentyl-N^1-hydroxy-N^8-phenyloctanediamide]	1700						
preferential HDAC1 inhibition	293 ± 32	177 ± 21	2.5	287 ± 9	440 ± 23	O=C(CCCCCCC(=O)N(O)Cc1ccccc1)Nc1ccccc1 [Compound 2c, N^1-benzyl-N^1-hydroxy-N^8-phenyloctanediamide]							
